Test results from patent US20260325533A1, “CDK INHIBITOR COMPOUNDS” (ALEKSIA THERAPEUTICS, INC., priority 2023, published 2026).
pIC50: −log10 of the molar value. Like-named read-outs stand apart in the source and are kept apart here.

How the values were obtained:
Assay type in all cases: biochemical
CDK2/CCNE1 = CDK2/CCNE1 (Homo sapiens, UniProt P24941); test: CDK2 homogeneous time-resolved fluorescence (HTRF) kinase assay; details: CDK2/CCNE
How it was run: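 IC50 derived from 11-point, half-log dilutions (usually top 10 μM) of compound, 1% DMSO. Kinase (3 nM CDK2/CCNE1) was preincubated with compound 20 min, then phosphorylated 50 nM ULight-4E-BP1 peptide at 1 mM ATP for 60 min, 23 °C. Europium-antibody TR-FRET read after EDTA stop.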

CDK6/CCND1 = CDK6/CCND1 (Homo sapiens, UniProt Q00534); test: CDK6 homogeneous time-resolved fluorescence (HTRF) kinase assay; details: CDK6/CCND
How it was run: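 Assay conditions: HEPES buffer containing 10 mM MgCl2, 1 mM EGTA, 2 mM DTT, 0.01% Tween 20; 1 nM CDK6/CCND1, 50 nM peptide substrate, 1 mM ATP. Detection after 60 min reaction used 2 nM europium antibody with 340 nm excitation. Potency fitted from half-log series, 11 points.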

CDK1/CCNB1 = CDK1/CCNB1 (Homo sapiens, UniProt P06493); test: CDK1 homogeneous time-resolved fluorescence (HTRF) kinase assay; details: CDK1/CCNB
How it was run: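 Kinase activity is measured as Lance signal (665 nm, or 665/615 nm ratio) from europium-labelled anti-phospho-Thr37/46 antibody binding ULight-4E-BP1 peptide. Reactions contain 0.5 nM enzyme, 1 mM ATP, 1% DMSO and run 60 min at 23 °C before EDTA quench.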

CDK4/CCND3 = CDK4/CCND3 (Homo sapiens, UniProt P11802); test: CDK4 homogeneous time-resolved fluorescence (HTRF) kinase assay; details: CDK4/CCND
How it was run: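 TR-FRET read (665 nm, or 665/615 ratio) of 4E-BP1 Thr37/46 phosphorylation by 1.5 nM CDK4/CCND3 at 1 mM ATP, 50 nM ULight peptide, 1% DMSO. Reaction ran 60 min at 23 °C after 20 min compound–enzyme preincubation. IC50 from 11-point half-log dilutions, top 10 μM.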

[1] = x = IC50 25-250 nM, read-out: CDK2/CCNE IC50 (25-250 nM)
[2] = x = IC50 >250 nM, read-out: CDK6/CCND IC50 (>250 nM column)
[3] = x = IC50 >250 nM, read-out: CDK1/CCNB IC50 (>250 nM column)
[4] = x = IC50 >250 nM, read-out: CDK4/CCND IC50 (>250 nM column)
[5] = <25 nM, read-out: CDK2/CCNE IC50 <25 nM
[6] = 25-250 nM marked x, read-out: CDK6/CCND IC50 25-250 nM
[7] = >250 nM marked x, read-out: CDK1/CCNB IC50 >250 nM
[8] = 25-250 nM marked x, read-out: CDK4/CCND IC50 25-250 nM
[9] = <25 nM, read-out: CDK6/CCND IC50 <25 nM
[10] = 25-250 nM marked x, read-out: CDK1/CCNB IC50 25-250 nM
[11] = <25 nM, read-out: CDK4/CCND IC50 <25 nM
[12] = <25 nM, read-out: CDK2/CCNE IC50, <25 nM
[13] = >250 nM, 1 mM ATP, read-out: CDK6/CCND IC50, >250 nM
[14] = >250 nM, read-out: CDK1/CCNB IC50 >250 nM
[15] = >250 nM, read-out: CDK4/CCND IC50, >250 nM
[16] = x = IC50 <25 nM, read-out: CDK2/CCNE IC50 (<25 nM)
[17] = 25-250 nM, read-out: CDK2/CCNE IC50, 25-250 nM

Chain of CDK4/CCND3 (P11802 whole entry): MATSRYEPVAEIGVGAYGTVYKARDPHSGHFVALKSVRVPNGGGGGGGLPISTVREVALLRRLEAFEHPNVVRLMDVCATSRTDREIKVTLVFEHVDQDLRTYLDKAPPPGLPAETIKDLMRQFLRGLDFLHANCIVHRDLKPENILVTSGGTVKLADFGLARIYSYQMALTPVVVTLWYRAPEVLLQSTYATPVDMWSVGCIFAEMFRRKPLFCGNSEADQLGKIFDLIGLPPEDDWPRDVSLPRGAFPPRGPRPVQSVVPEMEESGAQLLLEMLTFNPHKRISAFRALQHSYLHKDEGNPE
Chain of CDK4/CCND3 (P30281 whole entry partner): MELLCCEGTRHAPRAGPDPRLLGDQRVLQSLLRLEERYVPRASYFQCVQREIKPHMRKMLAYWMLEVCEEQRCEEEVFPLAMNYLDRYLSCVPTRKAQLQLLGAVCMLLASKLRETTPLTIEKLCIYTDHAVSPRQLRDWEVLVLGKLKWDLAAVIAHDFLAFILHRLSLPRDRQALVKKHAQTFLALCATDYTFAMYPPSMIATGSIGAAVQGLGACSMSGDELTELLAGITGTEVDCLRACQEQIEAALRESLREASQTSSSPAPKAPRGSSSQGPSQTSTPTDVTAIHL
Chain of CDK6/CCND1 (Q00534 whole entry): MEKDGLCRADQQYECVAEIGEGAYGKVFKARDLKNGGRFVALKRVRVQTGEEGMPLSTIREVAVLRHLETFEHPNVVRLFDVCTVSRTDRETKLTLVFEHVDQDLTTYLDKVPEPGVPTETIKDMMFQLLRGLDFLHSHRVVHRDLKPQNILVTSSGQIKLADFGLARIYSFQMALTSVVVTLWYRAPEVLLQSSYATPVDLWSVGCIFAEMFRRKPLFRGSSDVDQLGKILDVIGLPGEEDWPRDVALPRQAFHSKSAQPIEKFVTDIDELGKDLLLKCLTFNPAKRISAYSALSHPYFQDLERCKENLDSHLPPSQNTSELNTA
Chain of CDK6/CCND1 (P24385 whole entry partner): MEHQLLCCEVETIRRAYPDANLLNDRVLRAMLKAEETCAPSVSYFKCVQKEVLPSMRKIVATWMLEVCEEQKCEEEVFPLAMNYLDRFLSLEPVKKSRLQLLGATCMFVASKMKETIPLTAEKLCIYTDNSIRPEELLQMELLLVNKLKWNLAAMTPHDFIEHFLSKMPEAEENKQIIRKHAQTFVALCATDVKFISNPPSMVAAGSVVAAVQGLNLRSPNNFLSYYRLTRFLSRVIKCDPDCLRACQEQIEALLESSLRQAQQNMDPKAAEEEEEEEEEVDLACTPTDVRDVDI
Chain of CDK1/CCNB1 (P06493 whole entry): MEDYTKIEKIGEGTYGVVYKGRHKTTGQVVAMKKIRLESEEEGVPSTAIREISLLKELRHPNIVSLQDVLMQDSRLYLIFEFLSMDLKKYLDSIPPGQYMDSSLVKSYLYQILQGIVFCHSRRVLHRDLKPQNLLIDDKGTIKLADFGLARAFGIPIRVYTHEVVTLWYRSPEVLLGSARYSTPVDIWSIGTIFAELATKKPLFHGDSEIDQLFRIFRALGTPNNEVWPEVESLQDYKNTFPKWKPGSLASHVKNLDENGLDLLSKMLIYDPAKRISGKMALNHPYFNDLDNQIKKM
Chain of CDK1/CCNB1 (P14635 whole entry partner): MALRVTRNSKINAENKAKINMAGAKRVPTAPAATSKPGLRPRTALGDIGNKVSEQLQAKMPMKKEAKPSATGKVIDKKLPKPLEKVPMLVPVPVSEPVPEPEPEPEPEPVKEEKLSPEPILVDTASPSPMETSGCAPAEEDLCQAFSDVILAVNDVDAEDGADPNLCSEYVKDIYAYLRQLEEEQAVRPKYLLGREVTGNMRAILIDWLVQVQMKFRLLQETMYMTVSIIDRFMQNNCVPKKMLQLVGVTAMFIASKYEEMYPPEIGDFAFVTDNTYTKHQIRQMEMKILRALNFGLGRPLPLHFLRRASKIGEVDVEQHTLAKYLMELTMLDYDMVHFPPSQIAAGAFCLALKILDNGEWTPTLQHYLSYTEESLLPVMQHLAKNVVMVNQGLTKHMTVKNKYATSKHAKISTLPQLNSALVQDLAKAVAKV

SMILES: CS(=O)(=O)c1ccc(Nc2cc3c(C#Cc4ccc(=O)n(C(F)F)c4)nccc3cn2)cc1 [Ex 528, 1-(difluoromethyl)-5-((7-((4-(methylsulfonyl)phenyl)amino)-2,6-naphthyridin-1-yl)ethynyl)pyridin-2(1H)-one]
- pIC50 (CDK2/CCNE1; [1]): 6.60 to 7.60
- pIC50 (CDK6/CCND1; [2]): < 6.60
- pIC50 (CDK1/CCNB1; [3]): < 6.60
- pIC50 (CDK4/CCND3; [4]): < 6.60

SMILES: CS(=O)(=O)c1ccc(Nc2cc3c(C4=CCC(O)CC4)nccc3cn2)cc1 (racemic) [Ex 120, 4-(7-((4-(methylsulfonyl)phenyl)amino)-2,6-naphthyridin-1-yl)cyclohex-3-en-1-ol]
- pIC50 (CDK2/CCNE1; [5]): > 7.60
- pIC50 (CDK6/CCND1; [6]): 6.60 to 7.60
- pIC50 (CDK1/CCNB1; [7]): < 6.60
- pIC50 (CDK4/CCND3; [8]): 6.60 to 7.60

SMILES: CS(=O)(=O)c1ccc(Nc2cc3c(C#Cc4n[nH]c5c(F)cccc45)nccc3cn2)cc1 [Ex 503, 5-((7-fluoro-1H-indazol-3-yl)ethynyl)-N-(4-(methylsulfonyl)phenyl)-2,6-naphthyridin-3-amine]
- pIC50 (CDK2/CCNE1; [1]): 6.60 to 7.60
- pIC50 (CDK6/CCND1; [2]): < 6.60
- pIC50 (CDK1/CCNB1; [3]): < 6.60
- pIC50 (CDK4/CCND3; [4]): < 6.60

SMILES: CC1CCCCN1c1nccc2cnc(NC3CCN(S(C)(=O)=O)CC3)cc12 (racemic) [Ex 34, 5-(2-methylpiperidin-1-yl)-N-(1-(methylsulfonyl)piperidin-4-yl)-2,6-naphthyridin-3-amine]
- pIC50 (CDK2/CCNE1; [5]): > 7.60
- pIC50 (CDK6/CCND1; [9]): > 7.60
- pIC50 (CDK1/CCNB1; [10]): 6.60 to 7.60
- pIC50 (CDK4/CCND3; [11]): > 7.60

SMILES: C=CS(=O)(=O)N1CCC(Nc2cc3c(-c4ccncc4C)nccc3cn2)CC1 [Ex 107, 5-(3-methylpyridin-4-yl)-N-(1-(vinylsulfonyl)piperidin-4-yl)-2,6-naphthyridin-3-amine]
- pIC50 (CDK2/CCNE1; [5]): > 7.60
- pIC50 (CDK6/CCND1; [6]): 6.60 to 7.60
- pIC50 (CDK1/CCNB1; [7]): < 6.60
- pIC50 (CDK4/CCND3; [8]): 6.60 to 7.60

SMILES: CCc1ccc(S(=O)(=O)Nc2ccc(Nc3cc4c(-c5ccc6c(cnn6CC(C)(C)O)c5C)nccc4cn3)cc2)s1 [Ex 829, 5-ethyl-N-(4-((5-(1-(2-hydroxy-2-methylpropyl)-4-methyl-1H-indazol-5-yl)-2,6-naphthyridin-3-yl)amino)phenyl)thiophene-2-sulfonamide]
- pIC50 (CDK2/CCNE1; [12]): > 7.60
- pIC50 (CDK6/CCND1; [13]): < 6.60
- pIC50 (CDK1/CCNB1; [14]): < 6.60
- pIC50 (CDK4/CCND3; [15]): < 6.60

SMILES: CS(=O)(=O)c1ccc(Nc2cc3c(C#Cc4cccnc4N)nccc3cn2)c(F)c1 [Ex 418, 5-((2-aminopyridin-3-yl)ethynyl)-N-(2-fluoro-4-(methylsulfonyl)phenyl)-2,6-naphthyridin-3-amine]
- pIC50 (CDK2/CCNE1; [1]): 6.60 to 7.60
- pIC50 (CDK6/CCND1; [2]): < 6.60
- pIC50 (CDK1/CCNB1; [3]): < 6.60
- pIC50 (CDK4/CCND3; [4]): < 6.60

SMILES: Cc1c(-c2nccc3cnc(Nc4ccc(S(=O)(=O)Nc5ccc(N(C)C)nn5)cc4)cc23)ccc2c1cnn2CC(C)(C)O [Example 765, N-(6-(dimethylamino)pyridazin-3-yl)-4-((5-(1-(2-hydroxy-2-methylpropyl)-4-methyl-1H-indazol-5-yl)-2,6-naphthyridin-3-yl)amino)benzenesulfonamide]
- pIC50 (CDK2/CCNE1; [12]): > 7.60
- pIC50 (CDK6/CCND1; 25-250 nM, 1 mM ATP, read-out: CDK6/CCND IC50, 25-250 nM): 6.60 to 7.60
- pIC50 (CDK1/CCNB1; 25-250 nM, read-out: CDK1/CCNB IC50, 25-250 nM): 6.60 to 7.60
- pIC50 (CDK4/CCND3; 25-250 nM, read-out: CDK4/CCND IC50, 25-250 nM): 6.60 to 7.60

SMILES: CN1Cc2cc(-c3nccc4cnc(Nc5ccc(S(C)(=O)=O)cc5)cc34)ccc2CC1=O [Ex 644, 2-methyl-7-(7-((4-(methylsulfonyl)phenyl)amino)-2,6-naphthyridin-1-yl)-1,4-dihydroisoquinolin-3(2H)-one]
- pIC50 (CDK2/CCNE1; [1]): 6.60 to 7.60
- pIC50 (CDK6/CCND1; [2]): < 6.60
- pIC50 (CDK1/CCNB1; [3]): < 6.60
- pIC50 (CDK4/CCND3; [4]): < 6.60

SMILES: CS(=O)(=O)N1CCC(Nc2cc3c(-c4cccc(CO)c4)nccc3cn2)CC1 [Ex 64, (3-(7-((1-(methylsulfonyl)piperidin-4-yl)amino)-2,6-naphthyridin-1-yl)phenyl)methanol]
- pIC50 (CDK2/CCNE1; [5]): > 7.60
- pIC50 (CDK6/CCND1; [9]): > 7.60
- pIC50 (CDK1/CCNB1; [10]): 6.60 to 7.60
- pIC50 (CDK4/CCND3; [11]): > 7.60

SMILES: CCS(=N)(=O)c1ccc(Nc2cc3c(C#Cc4ccc5oc(=O)[nH]c5c4)nccc3cn2)cc1 (racemic) [Ex 479, 5-((7-((4-(ethylsulfonimidoyl)phenyl)amino)-2,6-naphthyridin-1-yl)ethynyl)benzo[d]oxazol-2(3H)-one]
- pIC50 (CDK2/CCNE1; [16]): > 7.60
- pIC50 (CDK6/CCND1; x = IC50 25-250 nM, read-out: CDK6/CCND IC50 (25-250 nM)): 6.60 to 7.60
- pIC50 (CDK1/CCNB1; x = IC50 25-250 nM, read-out: CDK1/CCNB IC50 (25-250 nM)): 6.60 to 7.60
- pIC50 (CDK4/CCND3; x = IC50 25-250 nM, read-out: CDK4/CCND IC50 (25-250 nM)): 6.60 to 7.60

SMILES: COc1cncc(C#Cc2nccc3cnc(Nc4ccc(S(C)(=O)=O)cc4)cc23)c1 [Ex 882, 5-((5-methoxypyridin-3-yl)ethynyl)-N-(4-(methylsulfonyl)phenyl)-2,6-naphthyridin-3-amine]
- pIC50 (CDK2/CCNE1; [17]): 6.60 to 7.60
- pIC50 (CDK6/CCND1; [13]): < 6.60
- pIC50 (CDK1/CCNB1; [14]): < 6.60
- pIC50 (CDK4/CCND3; [15]): < 6.60

SMILES: CS(=O)(=O)c1ccc(Nc2cc3c(C#Cc4ccnc(N)c4Cl)nccc3cn2)cc1 [Ex 580, 5-((2-amino-3-chloropyridin-4-yl)ethynyl)-N-(4-(methylsulfonyl)phenyl)-2,6-naphthyridin-3-amine]
- pIC50 (CDK2/CCNE1; [16]): > 7.60
- pIC50 (CDK6/CCND1; [2]): < 6.60
- pIC50 (CDK1/CCNB1; [3]): < 6.60
- pIC50 (CDK4/CCND3; [4]): < 6.60

SMILES: CS(=O)(=O)c1ccc(Nc2cc3c(-c4ccc5c(cnn5CC(O)(C(F)(F)F)C(F)(F)F)c4Cl)nccc3cn2)cc1 (single isomer, unassigned) [Example 587, 2-((4-chloro-5-(7-((4-(methylsulfonyl)phenyl)amino)-2,6-naphthyridin-1-yl)-1H-indazol-1-yl)methyl)-1,1,1,3,3,3-hexafluoropropan-2-ol]
- pIC50 (CDK2/CCNE1; [16]): > 7.60
- pIC50 (CDK6/CCND1; [2]): < 6.60
- pIC50 (CDK1/CCNB1; [3]): < 6.60
- pIC50 (CDK4/CCND3; [4]): < 6.60

SMILES: Cc1c(C#Cc2nccc3cnc(Nc4ccc(S(C)(=O)=O)cc4)cc23)ccc2oc(=O)[nH]c12 [Example 472, 4-Methyl-5-((7-((4-(methylsulfonyl)phenyl)amino)-2,6-naphthyridin-1-yl)ethynyl)benzo[d]oxazol-2(3H)-one]
- pIC50 (CDK2/CCNE1; [16]): > 7.60
- pIC50 (CDK6/CCND1; [2]): < 6.60
- pIC50 (CDK1/CCNB1; [3]): < 6.60
- pIC50 (CDK4/CCND3; [4]): < 6.60

SMILES: CS(=O)(=O)c1ccc(Nc2cc3c(C#Cc4cccnc4)nccc3cn2)cc1 [Ex 623, N-(4-(methylsulfonyl)phenyl)-5-(pyridin-3-ylethynyl)-2,6-naphthyridin-3-amine]
- pIC50 (CDK2/CCNE1; [1]): 6.60 to 7.60
- pIC50 (CDK6/CCND1; [2]): < 6.60
- pIC50 (CDK1/CCNB1; [3]): < 6.60
- pIC50 (CDK4/CCND3; [4]): < 6.60

SMILES: CCC1(CC)C(=O)Nc2cc(C#Cc3nccc4cnc(Nc5ccc(S(C)(=O)=O)cc5)cc34)ccc21 [Ex 461, 3,3-diethyl-6-((7-((4-(methylsulfonyl)phenyl)amino)-2,6-naphthyridin-1-yl)ethynyl)indolin-2-one]
- pIC50 (CDK2/CCNE1; [16]): > 7.60
- pIC50 (CDK6/CCND1; [2]): < 6.60
- pIC50 (CDK1/CCNB1; [3]): < 6.60
- pIC50 (CDK4/CCND3; [4]): < 6.60

SMILES: Cc1c(-c2nccc3cnc(Nc4ccc(S(=O)(=O)N(C)c5ncccn5)cc4)cc23)ccc2c1cnn2CC(O)(C(F)(F)F)C(F)(F)F [Example 732, N-methyl-4-((5-(4-methyl-1-(3,3,3-trifluoro-2-hydroxy-2-(trifluoromethyl)propyl)-1H-indazol-5-yl)-2,6-naphthyridin-3-yl)amino)-N-(pyrimidin-2-yl)benzenesulfonamide]
- pIC50 (CDK2/CCNE1; [17]): 6.60 to 7.60
- pIC50 (CDK6/CCND1; [13]): < 6.60
- pIC50 (CDK1/CCNB1; [14]): < 6.60
- pIC50 (CDK4/CCND3; [15]): < 6.60
